Columns and labels:
[1] = target: T1, CDK9 (Homo sapiens, UniProt P50750); test: CDK protein degradation activity (Western blotting), CDK9; type: cell-based; details: MDA-MB-231 cells, 16 hours, Western blot
T1 construct: endogenous in cells; host or cells: MDA-MB-231
Summary of the method: (§1)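 MDA-MB-231; cmpd 100 nM / 1 μM / 10 μM final vs DMSO, 16 h. Triton X-100 lysates (pH 7.5, phosphatase/protease inhibitors) → SDS-PAGE → Western blot, anti-CDK2, anti-CDK9, tubulin loading control; densitometry.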

[2] = target: T2, CDK2 (Homo sapiens, UniProt P24941); test: CDK protein degradation activity (Western blotting), CDK2; type: cell-based; details: MDA-MB-231 cells, 16 hours, Western blot
T2 construct: endogenous in cells; host or cells: MDA-MB-231
Summary of the method: as §1

T1 sequence (P50750 whole entry): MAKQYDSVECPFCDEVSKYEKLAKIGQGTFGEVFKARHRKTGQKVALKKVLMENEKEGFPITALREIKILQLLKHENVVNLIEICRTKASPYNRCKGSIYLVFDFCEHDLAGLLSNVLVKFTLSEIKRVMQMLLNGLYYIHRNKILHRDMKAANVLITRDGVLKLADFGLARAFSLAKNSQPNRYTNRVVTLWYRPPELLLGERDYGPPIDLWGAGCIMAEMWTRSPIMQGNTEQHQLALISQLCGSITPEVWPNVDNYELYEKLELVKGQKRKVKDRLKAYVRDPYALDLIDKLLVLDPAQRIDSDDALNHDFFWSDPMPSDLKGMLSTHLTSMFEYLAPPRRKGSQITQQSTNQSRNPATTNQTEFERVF

SMILES | Enzyme degradation CDK9 (% remaining) @ 0.1 μM [1] | Enzyme degradation CDK9 (% remaining) @ 1 μM [1] | Enzyme degradation CDK9 (% remaining) @ 10 μM [1] | Enzyme degradation CDK2 (% remaining) @ 0.1 μM [2] | Enzyme degradation CDK2 (% remaining) @ 1 μM [2] | Enzyme degradation CDK2 (% remaining) @ 10 μM [2]
O=C1CC[C@H](N2C(=O)c3ccc(NCC(=O)N4CCC(CN5CCC(c6ccc(Nc7ncnc8c7ncn8C7CC(NC(=O)Cc8ccccc8)C7)cc6)CC5)CC4)cc3C2=O)C(=O)N1 (stereo partly drawn) [Compound 290, N-((1s,3s)-3-(6-((4-(1-((1-((2-(2,6-dioxopiperidin-3-yl)-1,3-dioxoisoindolin-5-yl)glycyl)piperidin-4-yl)methyl)piperidin-4-yl)phenyl)amino)-9H-purin-9-yl)cyclobutyl)-2-phenylacetamide] | 10% | 0% | 0% | 20% | 20% | 30%
O=C1CC[C@H](N2C(=O)c3cccc(N4CCC(CN5CCC(c6ccc(Nc7ncnc8c7ncn8C7CC(NC(=O)Cc8ccccc8)C7)cc6)CC5)CC4)c3C2=O)C(=O)N1 (stereo partly drawn) [Compound 291, N-((1s,3s)-3-(6-((4-(1-((1-(2-(2,6-dioxopiperidin-3-yl)-1,3-dioxoisoindolin-4-yl)piperidin-4-yl)methyl)piperidin-4-yl)phenyl)amino)-9H-purin-9-yl)cyclobutyl)-2-phenylacetamide] | 20% | 0% | 0% | 20/20/20% | 20/20/20% | 20/20/20%
O=C1CC[C@H](N2C(=O)c3ccc(N4CCC(CN5CCC(c6ccc(Nc7ncnc8c7ncn8[C@H]7C[C@@H](NC(=O)Cc8ccccc8)C7)cc6)CC5)CC4)cc3C2=O)C(=O)N1 [Compound 292, N-((1s,3s)-3-(6-((4-(1-((1-(2-(2,6-dioxopiperidin-3-yl)-1,3-dioxoisoindolin-5-yl)piperidin-4-yl)methyl)piperidin-4-yl)phenyl)amino)-9H-purin-9-yl)cyclobutyl)-2-phenylacetamide] | 10% | 0% | 0% | 10/10/10% | 10/10/10% | 10/10/10%
O=C1CCC(N2C(=O)c3cccc(OCC(=O)N4CCC5(CC4)CC(N4CCC(c6ccc(Nc7ncnc8c7ncn8[C@H]7C[C@@H](NC(=O)Cc8ccccc8)C7)cc6)CC4)C5)c3C2=O)C(=O)N1 (stereo partly drawn) [Compound 293, N-((1s,3s)-3-(6-((4-(1-(7-(2-((2-(2,6-dioxopiperidin-3-yl)-1,3-dioxoisoindolin-4-yl)oxy)acetyl)-7-azaspiro[3.5]nonan-2-yl)piperidin-4-yl)phenyl)amino)-9H-purin-9-yl)cyclobutyl)-2-phenylacetamide] | 0/0/0% | 0/0/0% | 0/0/0% | 0/0/0% | 0/0/0% | 0/0/0%
O=C1CCC(N2C(=O)c3cccc(NCC(=O)N4CCC5(CC4)CC(N4CCC(c6ccc(Nc7ncnc8c7ncn8[C@H]7C[C@@H](NC(=O)Cc8ccccc8)C7)cc6)CC4)C5)c3C2=O)C(=O)N1 (stereo partly drawn) [Compound 294, N-((1s,3s)-3-(6-((4-(1-(7-((2-(2,6-dioxopiperidin-3-yl)-1,3-dioxoisoindolin-4-yl)glycyl)-7-azaspiro[3.5]nonan-2-yl)piperidin-4-yl)phenyl)amino)-9H-purin-9-yl)cyclobutyl)-2-phenylacetamide] | 0/0/0% | 0/0/0% | 0/0/0% | 10/10/10% | 10/10/10% | 10/10/10%

More lines, now with the values ahead:

Enzyme degradation CDK9 (% remaining) @ 0.1 μM [1] | Enzyme degradation CDK9 (% remaining) @ 1 μM [1] | Enzyme degradation CDK9 (% remaining) @ 10 μM [1] | Enzyme degradation CDK2 (% remaining) @ 0.1 μM [2] | Enzyme degradation CDK2 (% remaining) @ 1 μM [2] | Enzyme degradation CDK2 (% remaining) @ 10 μM [2] | SMILES
0/0/0% | 0/0/0% | 0/0/0% | 20/20/20% | 20/20/20% | 20/20/20% | O=C1CC[C@H](N2C(=O)c3ccc(OCC(=O)N4CCC5(CC4)CC(N4CCC(c6ccc(Nc7ncnc8c7ncn8[C@H]7C[C@@H](NC(=O)Cc8ccccc8)C7)cc6)CC4)C5)cc3C2=O)C(=O)N1 [Compound 295, N-((1s,3s)-3-(6-((4-(1-(7-(2-((2-(2,6-dioxopiperidin-3-yl)-1,3-dioxoisoindolin-5-yl)oxy)acetyl)-7-azaspiro[3.5]nonan-2-yl)piperidin-4-yl)phenyl)amino)-9H-purin-9-yl)cyclobutyl)-2-phenylacetamide]
10% | 0% | 0% | 20% | 40% | 40% | O=C1CC[C@H](N2C(=O)c3cccc(N4CCC5(CC4)CC(N4CCC(c6ccc(Nc7ncnc8c7ncn8C7CC(NC(=O)Cc8ccccc8)C7)cc6)CC4)C5)c3C2=O)C(=O)N1 (stereo partly drawn) [Compound 297, N-((1s,3s)-3-(6-((4-(1-(7-(2-(2,6-dioxopiperidin-3-yl)-1,3-dioxoisoindolin-4-yl)-7-azaspiro[3.5]nonan-2-yl)piperidin-4-yl)phenyl)amino)-9H-purin-9-yl)cyclobutyl)-2-phenylacetamide]
10% | 0% | 0% | 10/10/10% | 10/10/10% | 10/10/10% | O=C1CC[C@H](N2C(=O)c3ccc(N4CCC5(CC4)CC(N4CCC(c6ccc(Nc7ncnc8c7ncn8[C@H]7C[C@@H](NC(=O)Cc8ccccc8)C7)cc6)CC4)C5)cc3C2=O)C(=O)N1 [Compound 298, N-((1s,3s)-3-(6-((4-(1-(7-(2-(2,6-dioxopiperidin-3-yl)-1,3-dioxoisoindolin-5-yl)-7-azaspiro[3.5]nonan-2-yl)piperidin-4-yl)phenyl)amino)-9H-purin-9-yl)cyclobutyl)-2-phenylacetamide]
0/0/0% | 0/0/0% | 0/0/0% | 30/30/30% | 30/30/30% | 30/30/30% | O=C1CC[C@H](N2C(=O)c3cc(F)c(N4CCC(CN5CCN(c6ccc(Nc7ncnc8c7ncn8C7CC(NC(=O)c8c(Cl)cccc8Cl)C7)cc6)CC5)CC4)cc3C2=O)C(=O)N1 (stereo partly drawn) [Compound 299, 2,6-dichloro-N-((1s,3s)-3-(6-((4-(4-((1-(2-(2,6-dioxopiperidin-3-yl)-6-fluoro-1,3-dioxoisoindolin-5-yl)piperidin-4-yl)methyl)piperazin-1-yl)phenyl)amino)-9H-purin-9-yl)cyclobutyl)benzamide]
